This note sets out measurements from patent publication US20080125495A1, “Ameliorant For Renal Insufficiency” (MEIJI DAIRIES CORPORATION, priority 2004, published 2008).

In the experiment the test system is diabetes model rats. The experiment in a line: Renal dysfunction parameters in STZ-induced diabetes model rats (kidney weight, serum creatinine, serum urea nitrogen, MDA in kidney). The format is in vivo, SD rats. The protocol: To 8 weeks old male SD rats, 50 mg/kg of STZ (streptozotocin, manufactured by Wako Pure Chemical Industries, Ltd.) was intraperitoneally administered, thereby inducing diabetes. The diabetes model rats were divided into four groups: as therapeutic groups, 2,4,4-trimethyl-3(15-hydroxypentadecyl)-2-cyclohexen-1-one ([…]) synthesized by a method described in JP-A-2000-297034 was intraperitoneally administered once a day continuously for 4 or 8 weeks; and as controls, a non-therapeutic group with diabetes alone (Diabetic Control) and a control group without treatment were prepared. After 4 or 8 weeks, serum and both kidneys were removed from the rats. The right kidney was stored in a frozen state and the left kidney was subjected to formalin fixation.
Increase of kidney weight, elevation of serum creatinine level, and increase of MDA in kidney may be observed by renal dysfunction caused by diabetes.

Setting [1] is: 2 mg/kg i.p. once a day, 4 weeks after STZ administration.
The mark [2] stands for this setting: 2 mg/kg i.p. once a day, 8 weeks after STZ administration.
[3] abbreviates: 8 mg/kg i.p. once a day, 4 weeks after STZ administration.
Setting [4] is: 8 mg/kg i.p. once a day, 8 weeks after STZ administration.
The mark [5] stands for this setting: 8 mg/kg, eighth week after STZ administration.
Setting [6] is: 8 mg/kg, fourth week after STZ administration.

As for `CC1=C(CCCCCCCCCCCCCCCO)C(C)(C)CCC1=O` [Compound 1, 2,4,4-trimethyl-3(15-hydroxypentadecyl)-2-cyclohexen-1-one], the “increase of MDA in kidney (in words)” value is, setting by setting: (2 mg/kg) “markedly suppressed”; (8 mg/kg) “markedly suppressed”. Further, the Serum creatinine by setting is: under setting [1], 2.354 ± 0.254 mg/dL; under setting [2], 2.504 ± 0.253 mg/dL; under setting [3], 1.004 ± 0.118 mg/dL; under setting [4], 1.836 ± 0.228 mg/dL. Also, the Serum urea nitrogen is on record as 51.00 ± 3.78 mg/dL under setting [1], 60.78 ± 5.34 mg/dL under setting [2], 41.76 ± 3.60 mg/dL under setting [3] and 53.69 ± 2.97 mg/dL under setting [4]. Also, the Weight of kidney under setting [1] is recorded as 1.33 ± 0.05 g, the Weight of kidney under setting [2] was found to be 1.59 ± 0.04 g, the Weight of kidney under setting [3] is on record as 1.27 ± 0.07 g and the Weight of kidney under setting [4] amounted to 1.33 ± 0.05 g. Moreover, the “elevation of serum creatinine level (in words)” value was “tendency of the suppression” (4 mg/kg, eighth week after STZ administration); “markedly suppressed” under setting [5]; “markedly suppressed” under setting [6]. Besides, the “increase of kidney weight (in words)” value is on record as “markedly suppressed” under setting [5] and “suppressed” (rats to which the compound was administered, fourth week after STZ administration). In addition, the “elevation of serum urea nitrogen (in words)” value under setting [6] is listed as “markedly suppressed”.
